Some results are limits rather than exact numbers.

System in the first series: not listed separately
The series is described as follows: Test of stability in human plasma. The following applies: pH 7.2.
Description: Human plasma was diluted two-fold with 50 mM sodium phosphate buffer (pH=7.2) for use as the test plasma solution. The test sample was made a DMSO solution of 1 mM concentration.
198 μl of the above two-fold diluted plasma solution warmed to 37° C. was added to 2 μl of the test sample DMSO solution and the resultant mixture was stirred and incubated at 37° C. After 0, 5, and 15 minutes, 800 μl of acetonitrile was mixed with the test sample-plasma mixture to remove the protein, then a centrifugation operation (12,000 rpm, 1 minute) was carried out and the supernatant obtained. This was diluted two-fold with distilled water and measured for of the test sample by HPLC analysis.
For the rate of recovery from the plasma, the rates of recovery at different times were calculated based on a calibration line of the test sample in a DMSO standard solution. The half-life (t1/2) in plasma was calculated by exponential recurrence analysis from the rates of recovery of these different times.
Regarding `Nc1ccccc1S(=O)(=O)n1c(=O)[nH]c2cc(Cl)ccc2c1=O` [Example 2], the half-life at 10 µM is 175 min.

In the case of `O=C(O)C1Oc2ccc(S(=O)(=O)n3c(=O)[nH]c4cc(Cl)ccc4c3=O)cc2NC1=O` (racemic) [Example 29, (±)-6-[(7-chloro-2,4(1H,3H)-quinazolinedion-3-yl)sulfonyl]-3-oxo-1,4-benzoxazine-2-carboxylic acid], the half-life at 10 µM is more than 240 min.

Take `COc1ccc2c(=O)n(S(=O)(=O)c3ccc(C(=O)O)c(N)c3)c(=O)[nH]c2c1` [Example 27, 4-[(7-methoxy-2,4(1H,3H)-quinazolinedion-3-yl)sulfonyl]anthranilic acid]: the half-life at 10 µM worked out at 263 min.

`Nc1cccc(S(=O)(=O)n2c(=O)[nH]c3cc(Cl)ccc3c2=O)c1` [Example 12, 3-(3-aminobenzenesulfonyl)-7-chloro-2,4(1H,3H)-quinazolinedione]: the half-life at 10 µM is 249 min.

`COc1ccc(S(=O)(=O)n2c(=O)[nH]c3cc(Cl)ccc3c2=O)cc1NS(C)(=O)=O` [Example 24, 7-chloro-3-(4-methoxy-3-methylsulfonylaminobenzenesulfonyl)-2,4(1H,3H)-quinazolinedione] yielded a half-life at 10 µM of 79 min.

`CS(=O)(=O)O.Nc1cccc(S(=O)(=O)n2c(=O)[nH]c3cc(Cl)ccc3c2=O)c1` [Example 34, 3-(3-aminobenzenesulfonyl)-7-chloro-2,4-(1H,3H)quinazolinedion methanesulfonic acid salt] registered a half-life at 10 µM of 709 min.

Compound `Nc1cc(S(=O)(=O)n2c(=O)[nH]c3cc(Cl)ccc3c2=O)ccc1C(=O)O` [Example 17, 4-[(7-chloro-2,4(1H,3H)-quinazolinedion-3-yl)sulfonyl]anthranilic acid] gave a half-life at 10 µM of 260 min.

The compound `COc1ccc(S(=O)(=O)n2c(=O)[nH]c3cc(Cl)ccc3c2=O)cc1NC(C)=O` [Example 22, 3-(3-acetamide-4-methoxybenzenesulfonyl)-7-chloro-2,4(1H,3H)-quinazolinedione] showed a half-life at 10 µM of 104 min.

Take `O=c1[nH]c2cc(Cl)ccc2c(=O)n1S(=O)(=O)c1cccc(O)c1` [Example 1, 7-chloro-3-(3-hydroxybenzenesulfonyl)-2,4(1H,3H)-quinazolinedione]: the half-life at 10 µM is 78 min.

Compound `Nc1cc(S(=O)(=O)n2c(=O)[nH]c3ccc(Cl)cc3c2=O)ccc1C(=O)O` [Example 32, 4-[(6-chloro-2,4(1H,3H)-quinazolinedion-3-yl)sulfonyl]anthranilic acid] had a half-life at 10 µM of 74 min.

As for `O=C([O-])c1ccc(S(=O)(=O)n2c(=O)[nH]c3cc(Cl)ccc3c2=O)cc1O.[Na+]` [Example 16, 4-[(7-chloro-2,4(1H,3H)-quinazolinedion-3-yl)sulfonyl]salicylic acid monosodium salt], the half-life at 10 µM was more than 240 min.

For `Cc1ccc(S(=O)(=O)n2c(=O)[nH]c3cc(Cl)ccc3c2=O)cc1N` [Example 10, 3-(3-amino-4-methylbenzenesulfonyl)-7-chloro-2,4(1H,3H)-quinazolinedione], the half-life at 10 µM worked out at 167 min.

`Nc1cc(S(=O)(=O)n2c(=O)[nH]c3cc(Cl)ccc3c2=O)ccc1Cl` [Example 8, 3-(3-amino-4-chlorobenzenesulfonyl)-7-chloro-2,4(1H,3H)-quinazolinedione] returned a half-life at 10 µM of 29 min.

The compound `Nc1cc(S(=O)(=O)n2c(=O)[nH]c3cc(Cl)ccc3c2=O)ccc1C(=O)[O-].[Na+]` [Example 18, 4-[(7-chloro-2,4(1H,3H)-quinazolinedion-3-yl)sulfonyl]anthranilic acid monosodium salt] yielded a half-life at 10 µM of 103 min.

For another series, the system named is human chymase induced vascular permeability. The series is described as follows: Test of human chymase induced vascular permeability exacerbation reaction. In kind it is in vivo, Wister male rats. Particulars: 10 mg/kg orally, 30 minutes before intracutaneous human chymase (20 mU), rat back skin, Evans Blue. How it is done: Wister male rats (body weight 200 to 220 g, Charles River Japan) were used. In the backs of the rats from which the hair had been shaved off, 100 μl (20 mU: 1U being amount of enzyme for producing 1 nmol of AMC in 1 minute from Suc-Ala-Ala-Pro-Phe-MCA at pH7.5 and 30° C.) of a solution of the human chymase enzyme solution purified in evaluation Example 1 diluted 100-fold by PBS (phosphate buffered saline) was injected intracutaneously, then immediately thereafter a 0.5% (w/w) Evans Blue solution was administered from the tail artery. After 30 minutes, the rats were sacrificed by draining their blood under anesthesia with ether and the amount of dye leaking out to the back skin was measured. The region of the skin where the dye leaked out was cut off and 1.0 ml of 1N KOH solution was added and the resultant mixture was allowed to stand at 37° C. overnight. Next, 4 ml of an acetone-0.6N phosphoric acid (13:5) mixture was added to extract the dye. The absorbance at 650 nm of the supernatant was measured. […]
Next, 10 mg/kg of the compound of Example 18 was orally administered. 30 minutes later, 100 μl (20 mU) of human chymase the same as the non-drug administered group was injected intracutaneously and the amount of dye leaked out similarly measured. The rate of suppression of the amount of dye leakage due to the compound was calculated according to the following calculation formula. […]
`Nc1cc(S(=O)(=O)n2c(=O)[nH]c3cc(Cl)ccc3c2=O)ccc1C(=O)[O-].[Na+]` [Example 18, 4-[(7-chloro-2,4(1H,3H)-quinazolinedion-3-yl)sulfonyl]anthranilic acid monosodium salt]: the “Rate of suppression of amount of leakage of dye” value is recorded as 64%.

In the next series the target is T1, Human heart chymase (Homo sapiens, UniProt P23946).
T1 construct: Human heart chymase was purified according to the method of Urata et al; from tissue; host or cells: human heart
T1 sequence (P23946 22-247): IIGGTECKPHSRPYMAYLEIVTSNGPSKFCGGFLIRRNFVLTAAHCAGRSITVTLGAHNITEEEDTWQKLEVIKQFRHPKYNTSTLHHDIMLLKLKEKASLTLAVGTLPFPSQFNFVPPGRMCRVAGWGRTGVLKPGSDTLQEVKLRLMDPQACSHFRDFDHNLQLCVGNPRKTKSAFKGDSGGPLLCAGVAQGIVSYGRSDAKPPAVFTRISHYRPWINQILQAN
Briefly: Measurement of chymase inhibitory activity. It counts as biochemical. The following applies: purified human heart chymase, substrate Suc-Ala-Ala-Pro-Phe-MCA, pH 7.5, 30° C., 10 min preincubation. How it is done:
Human heart chymase was purified according to the method of Urata et al. (J. Biol. Chem., 1990, 265, 22348). The inhibitory activity of the quinazoline derivatives of the present invention with respect to chymase was measured in the following manner. That is, the purified enzyme solution was diluted to a suitable concentration with 0.1M tris-hydrochloride buffer (pH=7.5), 1M sodium chloride, and 0.01% TritonX-100 to In obtain an enzyme solution. A 10 mM dimethyl sulfoxide (hereinafter referred to as DMSO) solution of Suc-Ala-Ala-Pro-Phe-MCA (Peptide Institute) was diluted 20-fold at the time of use by 0.1M tris-hydrochlorate, 1M sodium chloride, and 0.01% TritonX-100 to obtain the substrate solution.
75 μl of the enzyme solution warmed to 30° C. was mixed with 5 μl of DMSO solution of the test sample. The mixture was preincubated at 30° C. for 10 minutes. Next, 20 μl of a substrate solution warmed to 30° C. was mixed with the test sample-enzyme mixture and incubated at 30° c. After 10 minutes, 50 μl of 30% acetic acid was added to stop the enzymatic reaction. The amount of the AMC produced was quantified using a fluorescent photometer. At the same time, a blind test was carried out by adding, instead of the test sample solution, 5 μl of DMSO and performing the same reaction. […]
As for `CC(C(=O)O)C(=O)Nc1cccc(S(=O)(=O)n2c(=O)[nH]c3cc(Cl)ccc3c2=O)c1` (centres unmarked) [Example 13, 2-{3-[(7-chloro-2,4(1H,3H)-quinazolinedion-3-yl)sulfonyl]phenylaminocarbonyl}propionic acid], half-maximal inhibition (IC50) was put at 300 nM.

System in another series: not given
Test: not given
The following applies: human, plasma, pH 7.2.
Compound `CC(C(=O)O)C(=O)Nc1cccc(S(=O)(=O)n2c(=O)[nH]c3cc(Cl)ccc3c2=O)c1` (centres unmarked) [Example 13, 2-{3-[(7-chloro-2,4(1H,3H)-quinazolinedion-3-yl)sulfonyl]phenylaminocarbonyl}propionic acid] registered a t1/2 of 97 min.

The term half-life denotes the time in which the quantity being followed falls by half. High values mean slow loss, low ones fast loss. The term IC50 denotes the point on the concentration scale where inhibition reaches its midpoint. Lower therefore signals inhibition by little substance.

The record behind these values is US6867214B1, “Quinazoline derivatives and pharmaceutical applications thereof” (Daiichi Suntory Pharma Co., Ltd., priority 1998, dated 2005).
